The text below walks through data of US20040054010A1, “Endosulfan formulation and methods of use thereof” (priority 2000, published 2004).

The subject of series [1] is Musca domestica (house fly). Conditions: topical application in acetone, cited from earlier work.
The test system of series [2] is Rats. In words: Acute toxicity after ingestion by rats. In kind it is in vivo. As to conditions: rats and mice (Table 1). The source says:
A comparison of the acute toxicity of the isomers and the metabolite endosulfan sulfate after ingestion by rats and mice is shown in Table 1. […] Most studies investigating the chronic toxicity of endosulfan in mammals have not differentiated between the isomers. An exception is the neurotoxic action of endosulfan that has been attributed to the alpha-isomer.

For series [3], the system named is Rats. Conditions: ingestion, Goebel et al., 1982; cited from earlier work.
The next series concerns Mice. As to conditions: ingestion, Dorough et al., 1978; cited from earlier work.
For the next series, the system named is Heliothis virescens. Conditions: topical application in acetone; Walfenbarger and Guerra, 1972; cited from earlier work.
The next series deals with Helicoverpa zea. As to conditions: topical application in acetone; Walfenbarger and Guerra, 1972; cited from earlier work.
In series [4] the test system is GABA-gated chloride channel. Conditions: Abalis et al., 1985, 1986; Gant et al., 1987; cited from earlier work.
The conditions of series [5]: Singh et al., 1991, cited from earlier work.

Counter-ions that a name gives are not always drawn. Like-named read-outs stand apart in the source and are kept apart here.

For the molecule `O=S1OC[C@@H]2[C@H](CO1)[C@@]1(Cl)C(Cl)=C(Cl)[C@]2(Cl)C1(Cl)Cl` (stereo partly drawn) [alpha-endosulfan], the LD50 was 5.5 µg/g in series [1] (Barnes and Ware, 1965); 0.14 μg · fly^−1 in series [1] (Lindquist and Dahm, 1957); 76 mg/kg in the series on Rats [3]; 11 mg/kg in the series on Mice; “high*” in the series with Heliothis virescens; 630 µg/g with Helicoverpa zea. Further, the “acute toxicity relative to the beta-isomer” value in the series with Rats [2] is “approximately four fold higher”. For the same molecule, in series [4], the “potency at inhibiting GABA-induced chloride flux relative to the beta-isomer” value is “much more potent”.
Take `O=S1(=O)OCC2C(CO1)C1(Cl)C(Cl)=C(Cl)C2(Cl)C1(Cl)Cl` (stereo not shown) [endosulfan sulfate]: the LD50 was 9.5 µg/g in series [1] (Barnes and Ware, 1965); 76 mg/kg in the series on Rats [3]; 8 mg/kg in the series on Mice; “high*” in the series with Heliothis virescens; 820 µg/g with Helicoverpa zea. Also, the “acute toxicity relative to the beta-isomer” value in the series on Rats [2] is given as “approximately four fold higher”.
Consider `O=S1OC[C@@H]2[C@H](CO1)[C@]1(Cl)C(Cl)=C(Cl)[C@]2(Cl)C1(Cl)Cl` (stereo partly drawn) [beta-endosulfan], for which the LD50 is 9.0 µg/g in series [1] (Barnes and Ware, 1965); 0.19 μg · fly^−1 in series [1] (Lindquist and Dahm, 1957); 240 mg/kg with Rats [3]; 36 mg/kg with Mice; 4960 µg/g in the series with Heliothis virescens; 4140 µg/g in the series with Helicoverpa zea. In addition, the “susceptibility to photolysis relative to the alpha-isomer” value in series [5] was “over twice as susceptible”. In addition, the “vulnerability to chemical hydrolysis relative to the alpha-isomer” value in series [5] (neutral and alkali pH) was “approximately 25%”.
